Test results from EP0647136B1, “USE OF CONDENSED BIS-(3,4-DIHYDRO-PYRIDINYL)METHANE FOR TREATING CROHN'S DISEASE, COLITIS ULCEROSA, CHRONIC INFLAMATORY PROCESSES AND AS AN ANTIPROLIFERATIVE” (BOEHRINGER INGELHEIM INTERNATIONAL GmbH, priority 1992, dated 1994).

System: RBL-2H3-Zellen
Experiment: Antigen-induced (DNP-BSA) activation of sensitised RBL-2H3 cells, fluorometric cytoplasmic Ca2+ measurement
Type: cell-based, rat
Conditions: 10 µM
Source text: Verwendet werden einzelne an Glasplättchen adhärente RBL-2H3-Zellen (eine den Mastzellen verwandte Tumorzellinie).
Die Kultivierung und Anhaftung der RBL-2H3-Zellen erfolgt in der HIDE und BEAVEN (1991) beschriebenen Methode. Zur Sensibilisierung der adhäsiven RBL-2H3-Zellen werden die Zellen 2 Stunden bei Raumtemperatur mit einer 1:2000 verdünnten käuflichen Gammaglobulin E-Lösung gegen einen Dinitrophenol-Rinderserumalbumin-Komplex (DNP-BSA-Antigen) inkubiert. Anschließend werden die Zellen gewaschen. Durch Zusatz von 0,1 ml DNP-BSA-Lösung (10 µg/ml) erfolgt eine massive immunologische Zellaktivierung, die durch einen cytoplasmatischen Ca^2+-overload vermittelt wird. Die fluorometrische Calciummessung im Cytoplasma einzelner adhärenter RBL-2H3-Zellen erfolgt in Analogie zu der von KUDO und OGURA (1986) für neuronale Zellen beschriebenen Methode, die auch weiter oben in dieser Beschreibung erläutert wird.

SMILES: O=C(O)c1cc(=O)c2c(OCC(O)COc3cccc4oc(C(=O)O)cc(=O)c34)cccc2o1 [Chromoglycat]
- Hemmung der antigen-induzierten Zellaktivierung: ca. 50%
